Patent US12157713B2, “Conjugated oligoelectrolytes as antimicrobial agents” (Nanyang Technological University, priority 2018, dated 2024)
pIC50: −log10 of the molar value.

Tests used:
[1] = tested on: Enterococcus faecalis OG1RF; test: MIC by broth microdilution against E. faecalis OG1RF; type: cell-based; settings: BHI
Procedure: The respective minimum inhibition concentration (MIC) of each COE molecule was determined using a broth microdilution method. Briefly, COEs were diluted via a 2-fold dilution series in 100 μL of either Muller Hinton Broth (MHB) for E. coli and S. aureus or Brain Heart Infusion Broth (BHI) for E. faecalis in a 96-well plate to achieve the desired final concentration. Subsequently, each well was inoculated with 100 μL of 1×10^6 colony forming units (CFU) mL^−1 of the respective microorganism in MHB for E. coli or BHI for E. faecalis to achieve an inoculum density of 5×10^5 CFU mL^−1. The plates were then incubated at 37° C. with shaking (200 rpm) for 18 hrs. […] The results were obtained in triplicate.
The MIC values of COE-D4, COE-D6 and COE-D8 against the reference strain E. coli K12, pathogenic E. coli UT189, and the Gram positive pathogen Enterococcus faecalis OG1RF were determined using a broth microdilution method as described in the general method above. The MICs for E. coli K12 were determined to be 128, 16, and 4 μg mL^−1 for COE-D4, COE-D6, and COE-D8, respectively (FIG. 5a). […] This is not surprising as these two organisms differ in the capsular polysaccharides that they expressed, which are known to hinder the uptake of antimicrobials and mitigate their potency (M. A. Campos, et al., Infect. Immun. 2004, 72, 7107-7114). […]

HepG2 cells = test: Toxicity on HepG2 cells; type: cell-based; settings: Homo sapiens
[2] = Intrinsic hepatic clearance in mice; type: in vitro ADME
human erythrocytes = test: Haemolysis assay; type: cell-based
Procedure: 1 mL of mammalian blood, collected from a healthy donor, was mixed with 9 mL of PBS and centrifuged at 1,000 rpm for 5 min. Red blood cell pellet was collected and subsequently washed with PBS three times and diluted to a final concentration of 5% v/v. The various COEs were dissolved in PBS and two folds serial diluted in a 96-well microplate. 50 μL of red blood cell stock was mixed with 50 μL of COE solution in each well and incubated for 1 hr at 37° C. under shaking. The microplate was centrifuged at 1,000 rpm for 10 min. 80 μL aliquots of the supernatant were then transferred to a new 96-well microplate and diluted with another 80 μL of PBS. Haemolytic activity was calculated by measuring absorbance at 540 nm using a 96-well plate spectrophotometer. Triton X-100 (0.1% in PBS), which is able to lyse red blood cells, completely was used as positive control, while PBS was used as negative control. The haemolysis percentage was calculated using the following formula:
[formula] where Op is the absorbance of the COE-treated sample, Ob is the absorbance of negative control and Ot is the absorbance of positive control. Results and Discussions
The selectivity of COEs towards bacteria or mammalian cells can be quantified using the ratio between the concentrations leading to 50% lysis of human erythrocytes (HC50) and the MIC value.

[3] = Intrinsic clearance in human; type: in vitro ADME
[4] = Aqueous solubility (further tests); type: physicochemical; settings: aqueous medium (not further specified)

| Compound | MIC [1] [µg/mL] | pIC50 (HepG2 cells) | intrinsic hepatic clearance in mice [2] | Toxicity towards erythrocytes (human erythrocytes) | intrinsic clearance in human [3] | solubility [4] [µM] |
| --- | --- | --- | --- | --- | --- | --- |
| C[N+](C)(C)CCCCCCCCOc1ccc(/C=C/c2ccc(OCCCCCCCC[N+](C)(C)C)cc2)cc1 [COE-D8] | 4 |  |  |  |  |  |
| CN(C)CC[N+](C)(C)CCCCCCOc1ccc(/C=C/c2ccc(OCCCCCC[N+](C)(C)CCN(C)C)cc2)cc1 [COE-D62N] |  | < 4.52 | good | non-toxic | good | > 200 |
